Reference: patent US20100204460A1, “NATURAL BRASSINOSTEROIDS FOR USE FOR TREATING HYPERPROLIFERATION, TREATING PROLIFERATIVE DISEASES AND REDUCING ADVERSE EFFECTS OF STEROID DYSFUNCTION IN MAMMALS, PHARMACEUTICAL COMPOSITION AND ITS USE” (priority 2007, published 2010)
Entries after “also recorded” stand apart in the source; their conditions may differ. Like-named read-outs stand apart in the source and are kept apart here.

Key:
[1] = system: T-lymphoblastic leukaemia cell line CEM; assay: Calcein AM cytotoxicity assay, CEM; format: cell-based; conditions: read-out: IC50 assessed by Calcein AM assay of surviving cells
[2] = system: multiple myeloma cell line RPMI 8226; assay: Calcein AM cytotoxicity assay, RPMI 8226; format: cell-based; conditions: exposure 72 h (b71 says 96 h), mean ± SD
[3] = system: malignant human melanoma cell line G361; assay: Calcein AM cytotoxicity assay, G 361; format: cell-based
[4] = system: normal human fibroblasts (BJ); assay: Calcein AM cytotoxicity assay, BJ; format: cell-based; conditions: read-out: IC50 assessed by Calcein AM assay of surviving cells
[5] = system: normal and cancer cell lines of different histopathological origin; assay: Calcein AM cytotoxicity assay, summary statements over the cell line panel; format: cell-based; conditions: for cytotoxic / growth inhibitory activity in words: tested in amounts up to 50 μmol/L per assay
Procedure: Stock solutions ([…]) were prepared by dissolving relevant quantity of substance in DMSO cultivation media (DMEM, RPMI 1640, F-12 medium), fetal bovine serum (FBS), L-glutamine, penicillin, and streptomycin were purchased from Sigma (MO, USA). 3-(4,5-Dimethylthiazol-2-yl)-2,5-diphenyltetrazolium bromide (MTT) was from Serva Electrophoresis (Heidelberg, Germany). Monoclonal mouse anti-bromodeoxyuridine (BrdU) intibody was obtained from DakoCytomation (Glostrup, Denmark). Calcein AM was obtained from PAA Laboratories GmbH (Pasching, Austria). The screening cell lines (T-lymphoblastic leukaemia cell line CEM; breast carcinoma cell line MCF-7 (estrogen-sensitive), breast adenocarcinoma cell line MDA-MB 468 (cell lines LNCaP (androgen-sensitive), prostate carcinoma cell line DU-145 ([…]), lung carcinoma cell line A-549, chronic myelogenous leukemia cell line K562, multiple myeloma cell line RPMI 8226, cervical carcinoma cell line HeLa, malignant human melanoma cell line G361, osteosarcoma cell line HOS, and normal human fibroblasts (BJ) were obtained from the American Type Culture Collection (Manassas, Va., USA). MCF-7 cells were cultured in F-12 medium (Sigma, MO, USA). LNCaP cells were cultured in RPMI 1640 medium (GIBCO, USA). All other cells were cultured in DMEM medium (Sigma, MO, USA). All used media were supplemented with 10% heat-inactivated fetal bovine serum, 2 mmol/L L-glutamine, 1% penicillin/streptomycin. The cell lines were maintained under standard cell culture conditions at 37° C. and 5% CO2 in a humid environment. Cells were subcultured twice or three times a week using the standard trypsinization procedure (Sigma, USA).
The cell suspension of approximate density of 1.25×10^5 cells/mL was redistributed into 96-well microtitre plates and after 12 h of stabilization the tested Brassinosteroids (BRs) were added in different concentrations. BRs were dissolved in DMSO. Control cultures were treated with DMSO alone. The final concentration of DMSO in the reaction mixture never exceeded 1%. Tested compounds in given concentrations were added at time zero in 20 μL aliquots to the microtiter plate wells. Usually, each test compound was evaluated at six 4-fold dilutions. In routine testing, the highest well concentration was 50 μmol, but it can be the matter of change dependent on the agent. Cultivation proceeds 96 h at 37° C., the cells were incubated with Calcein AM solution (Molecular Probes) for 1 h. Fluorescence (OD) of viable cells was quantified with Fluoroscan Ascent (Microsystems). The cell survival (IC50) was calculated using the following equation: IC50=(ODdrug exposed well/mean ODcontrol wells)×100%. Each compound was tested in triplicates and the test was repeated at least 3 times. The IC50 value, corresponding to drug concentration lethal to 50% of the tumor cells, was calculated from the obtained dose response curves.
We investigated effects of brassinosteroid on viability of normal and cancer cell lines of different histopathological origin. To evaluate the cytotoxic properties of several BRs and some related steroids, we used T-lymphoblastic leukaemia cell line CEM, breast carcinoma cell line MCF-7, lung carcinoma cell line A-549, chronic myeloid leukaemia cell line K562, multiple myeloma cell line RPMI 8226, cervical carcinoma cell line HeLa, malignant melanoma cell line G361, osteosarcoma cell line HOS, and normal human fibroblasts BJ. The cells were exposed to six 4-fold dilutions of each drug for 72 h to determinate number of surviving cells.

[6] = system: herpes simplex virus type 1 (HSV-1); conditions: cited from earlier work
arena viruses = conditions: cited from earlier work
measles virus (MV) = conditions: cited from earlier work
[7] = CEM, six 4-fold dilutions, exposure 72 h (b71 says 96 h), mean ± SD
[8] = Homo sapiens, RPMI-8226, RPMI 8226, read-out: IC50 assessed by Calcein AM assay of surviving cells
[9] = Homo sapiens, G 361, exposure 72 h (b71 says 96 h), mean ± SD, read-out: IC50 assessed by Calcein AM assay of surviving cells
[10] = Homo sapiens, Fibroblast, BJ normal fibroblasts, exposure 72 h (b71 says 96 h), mean ± SD
[11] = RPMI 8226, read-out: IC50 assessed by Calcein AM assay of surviving cells
[12] = G 361, exposure 72 h (b71 says 96 h), mean ± SD, read-out: IC50 assessed by Calcein AM assay of surviving cells
[13] = BJ normal fibroblasts, exposure 72 h (b71 says 96 h), mean ± SD
[14] = Homo sapiens, RPMI-8226, read-out: IC50 assessed by Calcein AM assay of surviving cells, RPMI 8226
[15] = Homo sapiens, G-361, read-out: IC50 assessed by Calcein AM assay of surviving cells

SMILES | IC50 [1, 7] [µM] | IC50 [2, 11] [µM] | IC50 [3, 12] [µM] | IC50 [4, 13] [µM] | cytotoxic / growth inhibitory activity in words [5] | also measured
CC(C)[C@H](C)[C@@H](O)[C@H](O)[C@@H](C)[C@H]1CCC2C3CC(=O)C4C[C@H](O)[C@H](O)C[C@]4(C)C3CC[C@@]21C (some centres unmarked) [Brassinosteroid 8] | 16 ± 5.3 | – | – | – | – | IC50 [2, 8]: 33 ± 1.3 µM; IC50 [3, 9]: > 50 µM; IC50 [4, 10]: > 50 µM
CC[C@@H](C(C)C)[C@H](O)[C@@H](O)[C@@H](C)[C@H]1CC[C@H]2[C@@H]3CC(=O)[C@H]4C[C@H](O)[C@H](O)C[C@]4(C)[C@H]3CC[C@]12C [22S,23S-28-Homocastasterone] | 24 ± 1.5 | 25 | 45 ± 2.2 | > 50 | – | –
CC(C)CCC[C@@H](C)[C@H]1CC[C@H]2[C@@H]3CC=C4C[C@@H](O)CC[C@]4(C)[C@H]3CC[C@]12C [Cholesterol] | > 50 | 38 ± 2.9 | – | – | – | IC50 [2, 8]: > 30 µM; IC50 [3, 9]: > 50 µM; IC50 [4, 10]: > 50 µM
CC[C@H](/C=C/[C@@H](C)[C@H]1CC[C@H]2[C@@H]3CC=C4C[C@@H](O)CC[C@]4(C)[C@H]3CC[C@]12C)C(C)C [Stigmasterol] | – | – | – | – | Almost zero activity | IC50 [1]: > 50 µM; IC50 [2, 14]: > 30 µM; IC50 ([2]; read-out: IC50 assessed by Calcein AM assay of surviving cells, RPMI 8226): 32 ± 0.6 µM; IC50 [3, 15]: > 50 µM; IC50 ([4]; Homo sapiens, Fibroblast): > 50 µM
CC(C)[C@@H](C)[C@H](O)[C@@H](O)[C@@H](C)[C@H]1CC[C@H]2[C@@H]3COC(=O)[C@H]4C[C@H](O)[C@H](O)C[C@]4(C)[C@H]3CC[C@]12C [22S,23S-24-Epibrassinolide] | > 50 | > 50 | > 50 | > 50 | – | –
CC(C)[C@H](C)[C@@H](O)[C@H](O)[C@@H](C)[C@H]1CC[C@H]2[C@@H]3CC(=O)[C@H]4C[C@H](O)[C@H](O)C[C@]4(C)[C@H]3CC[C@]12C [Brassinosteroid 8, Castasterone] | – | – | – | – | high cytotoxicity | –
CC(C)(O)CC[C@@H](O)[C@](C)(O)[C@H]1CC[C@@]2(O)C3=CC(=O)[C@@H]4C[C@@H](O)[C@@H](O)C[C@]4(C)[C@H]3CC[C@]12C [β-ecdyson] | > 50 | > 50 | > 50 | > 50 | – | cytotoxic / growth inhibitory activity in words ([5]; listed as β-ecdysone): Almost zero activity; also recorded: zero growth inhibitory activity
CC[C@@H](C(C)C)[C@@H](O)[C@H](O)[C@@H](C)[C@H]1CC[C@H]2[C@@H]3COC(=O)[C@H]4C[C@H](O)[C@H](O)C[C@]4(C)[C@H]3CC[C@]12C [Brassinosteroid 2, 28-Homobrassinolide] | – | – | – | – | – | in vitro antiviral activity [6]: in vitro antiviral activity; in vitro antiviral activity (arena viruses): in vitro antiviral activity; in vitro antiviral activity (measles virus (MV)): in vitro antiviral activity
CC(C)[C@H](C)[C@@H](O)[C@H](O)[C@@H](C)[C@H]1CCC2C3COC(=O)C4C[C@H](O)[C@H](O)C[C@]4(C)C3CC[C@@]21C (some centres unmarked) [Brassinosteroid 1] | – | – | – | – | – | IC50 [1]: > 50 µM; IC50 [2, 14]: > 50 µM; IC50 [3, 15]: > 50 µM; IC50 ([4]; Homo sapiens, Fibroblast): > 50 µM
CC(C)CCC[C@@H](C)[C@H]1CC[C@H]2[C@@H]3CC[C@H]4CCCC[C@]4(C)[C@H]3CC[C@]12C [5α-cholestane] | > 50 | – | – | – | Almost zero activity | IC50 [2, 8]: > 50 µM; IC50 [3, 9]: > 50 µM; IC50 [4, 10]: > 50 µM
CC(C)[C@@H](C)/C=C/[C@@H](C)[C@H]1CC[C@H]2[C@@H]3CC=C4C[C@@H](O)CC[C@]4(C)[C@H]3CC[C@]12C [Brassicasterol] | > 50 | > 50 | > 50 | > 50 | Almost zero activity | –
CC[C@@H](C(C)C)[C@@H](O)[C@H](O)[C@@H](C)[C@H]1CCC2C3COC(=O)C4C[C@H](O)[C@H](O)C[C@]4(C)C3CC[C@@]21C (some centres unmarked) [Brassinosteroid 2] | 48 ± 1.3 | – | – | – | – | IC50 [2, 8]: > 50 µM; IC50 [3, 9]: > 50 µM; IC50 [4, 10]: > 50 µM
CC(C)[C@@H](C)[C@H](O)[C@@H](O)[C@@H](C)[C@H]1CC[C@H]2[C@@H]3CC(=O)[C@H]4C[C@H](O)[C@H](O)C[C@]4(C)[C@H]3CC[C@]12C [22S,23S-24-Epicastasterone] | 49 ± 1.8 | > 50 | > 50 | > 50 | – | –
CC[C@@H](C(C)C)[C@H](O)[C@@H](O)[C@@H](C)[C@H]1CC[C@H]2[C@@H]3COC(=O)[C@H]4C[C@H](O)[C@H](O)C[C@]4(C)[C@H]3CC[C@]12C [22S,23S-28-Homobrassinolide] | 35 ± 2.2 | 31 ± 7.3 | > 50 | > 50 | – | IC50 ([5]; range over RPMI 8226 and CEM values of Table 1): 31 to 35 µM
CC[C@H](CC[C@@H](C)[C@H]1CC[C@H]2[C@@H]3CC=C4C[C@@H](O)CC[C@]4(C)[C@H]3CC[C@]12C)C(C)C [Sitosterol] | > 50 | 32 ± 1.6 | > 50 | > 50 | Almost zero activity | –
CC(C)[C@H](C)[C@@H](O)[C@H](O)[C@@H](C)[C@H]1CCC2C3CC(=O)C4C[C@H](O)[C@@H](O)C[C@]4(C)C3CC[C@@]21C (some centres unmarked) [Brassinosteroid 16] | > 50 | > 50 | > 50 | > 50 | – | –
